# In patent publication US6750244B2, “Compounds active at a novel site on receptor-operated calcium channels useful for treatment of neurological disorders and diseases” (NPS Pharmaceuticals, Inc., priority 1993, dated 2004):
# Like-named read-outs stand apart in the source and are kept apart here.
# Assays:
# [1] = tested on: muscle relaxation and anesthesia; settings: intrathecal administration; cited from earlier work
# seizure threshold = experiment: i.v. Metrazol test (seizure threshold) in mice; format: in vivo; settings: 10 mg/kg i.p.
# temporary focal ischemia = experiment: Temporary focal cerebral ischemia (middle cerebral artery occlusion, suture withdrawn after 2 hr); format: in vivo, rat; settings: two doses of 1 mg/kg i.p.
# Description: In a fourth model of focal cerebral ischemia in the rat, the middle cerebral artery was temporarily occluded by passing a small piece of suture thread through the carotid artery to the region of the middle cerebral artery. The suture thread was withdrawn after an ischemic period of 2 hr. Core body temperature was maintained at 37° C. […]
# [2] = tested on: formalin-induced flinching; format: in vivo, Sprague-Dawley rats; settings: 10 mg/kg i.p.
# behavior [3] = experiment: Behavioral effects in conscious male NMRI mice
# behavior [4] = experiment: Behavioral effects in conscious beagle dogs
# [5] = tested on: maximal electroshock-induced seizures; experiment: Maximal electroshock-induced seizures in rats; format: in vivo; settings: Rattus norvegicus, read-out: ED50, maximal electroshock-induced seizures
# dopamine uptake site = target: T1, dopamine uptake site (Cavia porcellus, UniProt H0WCX4); experiment: Dopamine uptake binding assay: [3H]WIN-35,428 binding to guinea pig striatal membranes
# T1 construct: from tissue; host or cells: guinea pig striatal membranes (per the assay title)
# [6] = target: NMDA receptor-ionophore complex (site labeled by [3H]MK-801); experiment: Inhibition of [3H]MK-801 binding in rat cortical/hippocampal washed membrane preparations; settings: read-out: IC50 (μM) vs. [3H]MK-801; rat cortical/hippocampal washed membranes
# focal ischemia = experiment: Photothrombotic (Rose Bengal) model of focal cerebral ischemia; format: in vivo, rat; settings: 10 mg/kg i.p. at 15 min, 3 hr, and again 6 hr post-occlusion
# From the text: In a third model of focal cerebral ischemia in the rat, an ischemic infarct was produced by a photothrombotic method using the dye Rose Bengal.
# in vivo [7] = settings: mouse, in vivo, ip
# Description: (§1) In this assay, Frings and CF1 mice were injected with test compound and placed on a knurled rod which rotated at a speed of 6 rpm. The ability of the mice to maintain equilibrium for long periods of time was determined; those mice that were unable to maintain equilibrium on the rotorod for 1 min in each of 3 trials were considered impaired.
# motor performance = experiment: Acute motor impairment (rotorod) in mice; settings: for TD50 (motor impairment): Frings mice
# Description: as §1
# thermal nociception [8] = format: in vivo, rats; settings: 25 mg/kg i.p.
# Description: In these experiments, a 52° C. hot plate was used as the nociceptive stimulus.
# [9] = target: T2, norepinephrine uptake site (Rattus norvegicus, UniProt Q63380); experiment: Norepinephrine uptake binding assay: [3H]desipramine binding to rat cortical membranes
# T2 construct: from tissue; host or cells: rat cortical membranes (per the assay title)
# [10] = tested on: mean arterial pressure, heart rate, ECG; experiment: Cardiovascular activity in conscious beagle dogs
# sound-induced seizures = experiment: Sound-induced seizures in Frings mice (reflex epilepsy); format: in vivo; settings: Mus musculus, Frings mice
# induction of LTP = tested on: induction of LTP; parameters: species or system rat; settings: at 100 μM
# [11] = tested on: central muscarinic cholinergic receptor; format: binding, rat
# NMDA receptor [12] = experiment: Inhibition of NMDA/glycine-induced increases in intracellular calcium in cultured rat cerebellar granule cells (RCGC); format: cell-based; settings: NMDA/glycine-induced increases in intracellular calcium, cultured rat cerebellar granule cells; read-out: IC50 (μM) vs. NMDA
# [13] = Motor toxicity (TD50) in rats; settings: rat, in vivo, po
# [14] = tested on: acetic acid-induced writhing; format: in vivo, mice; settings: 10 mg/kg i.p.
# [15] = tested on: mean arterial blood pressure
# thermal nociception [16] = format: in vivo, rats; settings: 25 mg/kg i.p.; remark: listed apart in the source
# Description: In this standard assay, the thermal nociceptive stimulus was 52° C. warm water with the latency to tail flick or withdrawal taken as the endpoint.
# [17] = tested on: PCP-like discriminative stimulus effects; format: in vivo, rats; settings: i.p., rats
# From the text: In this assay, rats who have been trained to lever press for food reinforcement must select which of two levers in their cages is correct. The only stimulus they hive for selecting the correct lever is their ability to detect whether they received a PCP or vehicle injection After about two months of training, rats become very good at discriminating PCP from vehicle injections and can then be tested with other drugs to determine if they are discriminated as PCP. When tested in this procedure, other drugs which are known to produce a PCP-like intoxication substitute for PCP. These drugs include various PCP analogs such as ketamine and the noncompetitive NMDA receptor antagonist, MK-801.
# [18] = tested on: delayed rectifier potassium channel; experiment: Inhibition of delayed rectifier potassium channel in cultured N1E-115 neuroblastoma cells; format: cell-based; settings: read-out: Delayed rectifier potassium channel: estimated IC50
# [19] = tested on: maximal electroshock-induced seizures; experiment: Maximal electroshock-induced seizures in mice; format: in vivo; settings: mice; for ED50: Mus musculus, ip
# NMDA receptor [20] = settings: rat hippocampal slices
# Description: Glutamate-mediated transmission at synapses of Schaffer collateral fibers and CA1 pyramidal cells was measured in slices of rat brain containing the hippocampus. This assay measures electrophysiologically the postsynaptic depolarization caused by the presynaptic release of glutamate, and can readily distinguish synaptic transmission mediated by NMDA or AMPA receptors.
# permanent focal ischemia = experiment: Permanent focal cerebral ischemia (middle cerebral artery occlusion, suture); format: in vivo, rat; settings: 1 mg/kg i.p. at 30 min and again 4 hr post-occlusion
# Description: In the second study of focal cerebral ischemia in the rat, the middle cerebral artery was permanently occluded by passing a small piece of suture thread through the carotid artery to the region of the middle cerebral artery. Core body temperature was maintained at 37° C. Compound 4, 10 mg/kg i.p. administered immediately after the onset of the ischemic event, produced a statistically significant reduction in the volume of the brain infarct (20%) recorded 24 hr later.
# behavior [21] = experiment: Behavioral effects in conscious male Wistar rats
# serotonin uptake site = target: T3, serotonin uptake site (Rattus norvegicus, UniProt P31652); experiment: Serotonin uptake binding assay: [3H]citalopram binding to rat forebrain membranes
# T3 construct: from tissue; host or cells: rat forebrain membranes (per the assay title)
# L-type calcium channel = tested on: T4, L-type calcium channel; experiment: Inhibition of KCl depolarization-induced increases in intracellular calcium in cultured rat cerebellar granule cells; format: cell-based; settings: cultured rat cerebellar granule cells; read-out: L-type calcium channel: estimated IC50, KCl depolarization-induced increases in intracellular calcium
# T4 construct: L-type calcium channel: estimated IC50, KCl depolarization-induced increases in intracellular calcium; other: cultured
# From the text: The ability of arylalkylamines to inhibit dihydropyridine-sensitive Ca^2+ channels was examined in cerebellar granule cells and a rat aortic smooth muscle cell line, A7r5 cells.
# GluR3 = target: T5, GluR3 (Rattus norvegicus, UniProt P19492); settings: cited from earlier work
# T5 construct: host or cells: Xenopus oocytes
# GluR1 [22] = target: T6, GluR1 (Rattus norvegicus, UniProt P19490); settings: cited from earlier work
# T6 construct: host or cells: Xenopus oocytes
# in vivo [23] = settings: rat, po
# GluR1 [24] = target: T6, GluR1; settings: cited from earlier work; remark: listed apart in the source
# GluR1+GluR2 = target: T7, GluR1+GluR2 (Rattus norvegicus, UniProt P19490+P19491, Q607R); settings: cited from earlier work
# T7 construct: host or cells: Xenopus oocytes
# kainate receptors = settings: read-out: IC50, kainate-induced responses; cited from earlier work
# NMDA receptors = settings: read-out: IC50, NMDA-induced responses; cited from earlier work
# NMDAR1 = target: T8, NMDAR1 (UniProt A7XY94+P35439); settings: cited from earlier work
# T8 construct: host or cells: Xenopus oocytes
# focal ischemic stroke = experiment: Rat model of focal ischemic stroke (vessel occlusion); format: in vivo, rats; settings: i.p. 2 mg/kg 30 min prior to vessel occlusion and 2 mg/kg 3 hr post-occlusion
# [25] = 3 mg/kg i.v. (60 sec bolus injection)
# [26] = 10 mg/kg i.v. (60 sec bolus injection)
# T1 sequence (H0WCX4 1-619): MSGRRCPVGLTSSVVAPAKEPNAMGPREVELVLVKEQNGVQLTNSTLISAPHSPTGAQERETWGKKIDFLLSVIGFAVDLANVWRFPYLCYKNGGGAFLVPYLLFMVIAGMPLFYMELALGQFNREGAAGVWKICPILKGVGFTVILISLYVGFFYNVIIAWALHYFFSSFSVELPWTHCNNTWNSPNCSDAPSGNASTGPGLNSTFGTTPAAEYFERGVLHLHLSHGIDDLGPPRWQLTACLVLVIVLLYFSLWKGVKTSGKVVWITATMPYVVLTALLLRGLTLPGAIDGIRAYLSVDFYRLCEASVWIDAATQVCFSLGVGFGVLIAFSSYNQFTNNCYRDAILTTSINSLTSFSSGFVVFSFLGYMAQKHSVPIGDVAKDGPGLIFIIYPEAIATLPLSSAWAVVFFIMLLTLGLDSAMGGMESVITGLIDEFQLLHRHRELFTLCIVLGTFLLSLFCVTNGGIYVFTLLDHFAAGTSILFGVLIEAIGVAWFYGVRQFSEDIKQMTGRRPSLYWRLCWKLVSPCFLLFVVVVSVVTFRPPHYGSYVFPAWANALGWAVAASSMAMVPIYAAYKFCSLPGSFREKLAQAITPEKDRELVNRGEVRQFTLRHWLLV
# T2 sequence (Q63380 1-617): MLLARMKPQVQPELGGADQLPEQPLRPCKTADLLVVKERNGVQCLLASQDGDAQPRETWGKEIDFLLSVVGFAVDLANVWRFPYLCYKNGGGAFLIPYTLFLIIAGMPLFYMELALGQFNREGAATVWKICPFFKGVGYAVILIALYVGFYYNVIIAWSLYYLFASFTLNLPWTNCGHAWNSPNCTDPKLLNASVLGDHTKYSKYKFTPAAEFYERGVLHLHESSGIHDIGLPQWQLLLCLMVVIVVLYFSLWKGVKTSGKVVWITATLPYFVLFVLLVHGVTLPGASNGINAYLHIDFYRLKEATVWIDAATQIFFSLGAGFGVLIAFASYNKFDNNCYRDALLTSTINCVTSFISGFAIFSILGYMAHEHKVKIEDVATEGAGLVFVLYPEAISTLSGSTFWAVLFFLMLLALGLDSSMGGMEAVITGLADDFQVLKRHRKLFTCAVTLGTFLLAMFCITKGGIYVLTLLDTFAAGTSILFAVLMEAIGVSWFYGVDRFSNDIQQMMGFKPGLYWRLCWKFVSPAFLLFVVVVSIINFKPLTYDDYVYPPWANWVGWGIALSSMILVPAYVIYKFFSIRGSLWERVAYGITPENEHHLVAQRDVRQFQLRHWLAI
# T6 sequence (P19490 19-907): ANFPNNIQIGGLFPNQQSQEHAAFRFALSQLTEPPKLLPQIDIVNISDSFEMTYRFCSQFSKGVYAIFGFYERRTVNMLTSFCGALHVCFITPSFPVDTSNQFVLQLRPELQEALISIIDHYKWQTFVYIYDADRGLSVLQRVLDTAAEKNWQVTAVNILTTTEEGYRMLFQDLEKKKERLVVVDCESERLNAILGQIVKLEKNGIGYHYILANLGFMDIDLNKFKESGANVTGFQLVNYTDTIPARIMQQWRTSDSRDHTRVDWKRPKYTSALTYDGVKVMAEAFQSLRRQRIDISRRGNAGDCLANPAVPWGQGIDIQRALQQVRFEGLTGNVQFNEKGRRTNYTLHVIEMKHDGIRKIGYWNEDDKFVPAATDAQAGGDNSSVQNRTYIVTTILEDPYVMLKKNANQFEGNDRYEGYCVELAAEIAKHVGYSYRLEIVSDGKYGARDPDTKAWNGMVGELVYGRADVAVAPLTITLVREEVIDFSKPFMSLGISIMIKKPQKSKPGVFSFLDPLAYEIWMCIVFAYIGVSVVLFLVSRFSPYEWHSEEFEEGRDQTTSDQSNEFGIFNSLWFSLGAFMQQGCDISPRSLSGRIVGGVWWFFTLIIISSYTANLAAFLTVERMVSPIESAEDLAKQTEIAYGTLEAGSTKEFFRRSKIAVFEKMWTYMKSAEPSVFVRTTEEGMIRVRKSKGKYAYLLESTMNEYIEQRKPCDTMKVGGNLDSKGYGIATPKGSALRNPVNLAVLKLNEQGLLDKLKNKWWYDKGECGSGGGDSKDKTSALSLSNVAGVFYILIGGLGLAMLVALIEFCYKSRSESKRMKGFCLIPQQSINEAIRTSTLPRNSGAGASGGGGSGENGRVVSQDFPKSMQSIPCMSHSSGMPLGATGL
# T3 sequence (P31652 whole entry): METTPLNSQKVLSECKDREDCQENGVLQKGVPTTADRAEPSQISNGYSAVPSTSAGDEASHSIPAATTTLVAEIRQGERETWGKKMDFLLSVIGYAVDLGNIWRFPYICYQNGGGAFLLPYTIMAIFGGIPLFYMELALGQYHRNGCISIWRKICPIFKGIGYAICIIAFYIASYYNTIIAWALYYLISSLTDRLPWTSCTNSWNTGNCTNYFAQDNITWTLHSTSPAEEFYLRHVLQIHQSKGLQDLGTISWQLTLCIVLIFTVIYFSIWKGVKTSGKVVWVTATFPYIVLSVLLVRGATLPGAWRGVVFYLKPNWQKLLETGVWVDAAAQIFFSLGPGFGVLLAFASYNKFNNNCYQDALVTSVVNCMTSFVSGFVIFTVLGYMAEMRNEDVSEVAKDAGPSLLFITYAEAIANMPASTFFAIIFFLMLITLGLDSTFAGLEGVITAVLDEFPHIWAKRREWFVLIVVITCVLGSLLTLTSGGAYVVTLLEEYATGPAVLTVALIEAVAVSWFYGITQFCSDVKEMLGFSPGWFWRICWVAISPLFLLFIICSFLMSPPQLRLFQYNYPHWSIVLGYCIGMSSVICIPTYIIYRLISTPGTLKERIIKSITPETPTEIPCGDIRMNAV
# T5 sequence (P19492 23-888): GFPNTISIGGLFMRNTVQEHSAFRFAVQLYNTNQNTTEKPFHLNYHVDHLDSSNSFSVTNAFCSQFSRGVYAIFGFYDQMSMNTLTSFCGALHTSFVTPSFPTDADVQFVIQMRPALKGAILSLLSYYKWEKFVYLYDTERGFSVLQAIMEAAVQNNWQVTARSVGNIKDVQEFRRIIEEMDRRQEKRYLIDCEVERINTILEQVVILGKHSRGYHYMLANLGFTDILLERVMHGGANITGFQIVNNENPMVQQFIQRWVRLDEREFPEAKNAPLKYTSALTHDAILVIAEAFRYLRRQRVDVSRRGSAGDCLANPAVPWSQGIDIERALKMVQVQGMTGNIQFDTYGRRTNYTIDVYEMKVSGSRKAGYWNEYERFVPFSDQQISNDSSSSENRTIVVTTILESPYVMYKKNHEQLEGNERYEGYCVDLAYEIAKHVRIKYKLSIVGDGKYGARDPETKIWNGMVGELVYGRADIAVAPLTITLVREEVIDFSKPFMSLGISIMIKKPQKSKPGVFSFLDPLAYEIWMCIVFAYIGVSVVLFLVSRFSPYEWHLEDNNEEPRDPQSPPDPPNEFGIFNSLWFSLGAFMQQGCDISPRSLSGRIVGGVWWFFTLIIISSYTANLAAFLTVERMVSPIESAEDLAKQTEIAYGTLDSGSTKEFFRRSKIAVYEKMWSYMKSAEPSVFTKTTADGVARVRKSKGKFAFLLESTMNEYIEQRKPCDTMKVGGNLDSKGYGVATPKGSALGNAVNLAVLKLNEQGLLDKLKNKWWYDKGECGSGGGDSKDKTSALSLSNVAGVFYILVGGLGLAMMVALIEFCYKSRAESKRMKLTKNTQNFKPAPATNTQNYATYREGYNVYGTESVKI
# T8 sequence (A7XY94 25-1448, other chains not shown): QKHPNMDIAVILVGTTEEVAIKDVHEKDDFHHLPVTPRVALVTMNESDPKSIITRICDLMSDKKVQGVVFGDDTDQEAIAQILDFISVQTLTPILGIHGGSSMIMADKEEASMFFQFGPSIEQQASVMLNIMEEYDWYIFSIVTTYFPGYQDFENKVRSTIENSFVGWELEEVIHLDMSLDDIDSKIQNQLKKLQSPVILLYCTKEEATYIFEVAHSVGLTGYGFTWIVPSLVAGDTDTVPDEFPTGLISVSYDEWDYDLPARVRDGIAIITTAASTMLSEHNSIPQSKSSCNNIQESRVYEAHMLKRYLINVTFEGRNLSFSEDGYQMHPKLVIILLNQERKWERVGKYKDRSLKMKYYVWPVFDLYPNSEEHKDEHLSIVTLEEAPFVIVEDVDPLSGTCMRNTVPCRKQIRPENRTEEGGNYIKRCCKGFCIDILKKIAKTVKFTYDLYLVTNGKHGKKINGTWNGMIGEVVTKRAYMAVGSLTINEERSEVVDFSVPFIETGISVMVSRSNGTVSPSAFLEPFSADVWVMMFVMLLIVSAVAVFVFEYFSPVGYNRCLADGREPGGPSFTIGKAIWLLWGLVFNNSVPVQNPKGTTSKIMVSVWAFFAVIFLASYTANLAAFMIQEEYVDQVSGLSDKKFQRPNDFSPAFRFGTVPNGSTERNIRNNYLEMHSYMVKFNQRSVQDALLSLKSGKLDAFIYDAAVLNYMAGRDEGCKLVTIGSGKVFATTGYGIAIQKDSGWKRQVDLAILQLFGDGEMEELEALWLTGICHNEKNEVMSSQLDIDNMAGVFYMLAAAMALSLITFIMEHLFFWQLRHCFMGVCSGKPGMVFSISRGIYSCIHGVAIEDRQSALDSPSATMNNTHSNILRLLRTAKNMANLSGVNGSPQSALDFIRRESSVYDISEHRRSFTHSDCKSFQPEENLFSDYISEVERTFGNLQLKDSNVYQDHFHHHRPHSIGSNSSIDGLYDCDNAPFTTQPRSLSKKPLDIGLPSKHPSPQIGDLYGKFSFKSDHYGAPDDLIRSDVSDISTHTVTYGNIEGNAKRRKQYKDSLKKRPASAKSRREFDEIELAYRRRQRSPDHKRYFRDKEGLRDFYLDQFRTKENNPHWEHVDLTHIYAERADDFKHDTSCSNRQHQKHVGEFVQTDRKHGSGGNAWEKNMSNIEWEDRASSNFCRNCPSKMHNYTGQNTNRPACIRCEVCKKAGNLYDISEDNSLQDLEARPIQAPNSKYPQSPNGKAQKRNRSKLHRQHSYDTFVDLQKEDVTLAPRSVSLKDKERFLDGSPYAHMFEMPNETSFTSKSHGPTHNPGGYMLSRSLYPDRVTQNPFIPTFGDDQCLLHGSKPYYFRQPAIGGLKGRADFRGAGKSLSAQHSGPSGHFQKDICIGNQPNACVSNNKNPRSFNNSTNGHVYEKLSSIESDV
smiles,measurement,setting,value
NCCCNCCCCNCCCNCCCN(O)CCCNC(=O)Cc1c[nH]c2ccccc12 [agatoxin-489],muscle relaxation and anesthesia,[1],not
"NCCC(c1cccc(F)c1)c1cccc(F)c1 [Compound 20, 3,3-bis(3-fluorophenyl)-1-propylamine]","seizure threshold, i.v. Metrazol test",seizure threshold,an increase in seizure threshold
same,reduction in the infarct volume,temporary focal ischemia; 2 hr after occlusion (time of reperfusion) and 6 hr later,43%
same,reduction in the infarct volume,temporary focal ischemia; immediately after middle cerebral artery occlusion and 6 hr later,51%
same,"analgesic activity, rat formalin test",[2],"significant analgesic activity, not blocked by the opiate receptor antagonist naloxone"
same,behavioral effects,behavior [3]; 8 mg/kg i.p.,excitation and increased reactivity to touch
same,behavioral effects,behavior [3]; 64 mg/kg i.p.,convulsions and death
same,behavioral effects,behavior [3]; 2 and 4 mg/kg i.p.,no behavioral effects
same,behavioral effects,behavior [3]; 16 and 32 mg/kg i.p.,"excitation, Straub tail, tremor, stereotypies, hypothermia, and mydriasis"
same,behavioral effects,behavior [3]; 128 and 256 mg/kg i.p.,convulsions and death
same,behavioral effects,behavior [4]; [25],"increased motor activity, agitation and anxiousness, slight tremors, licking of the mouth, whining, and urination"
same,behavioral effects,behavior [4]; [26],"dilated pupils, whole body tremors, incoordination, licking of the mouth, salivation, panting, rapid blinking of the eyes, whining, anxiousness, seizures, and death"
same,ED50,[5]; po,33.6 mg/kg
same,"Monoamine uptake binding assays: dopamine uptake binding assay, percent block",dopamine uptake site; at 0.1 μM,6% at
same,"Monoamine uptake binding assays: dopamine uptake binding assay, percent block",dopamine uptake site; at 10 μM,0.1^f81% at
same,IC50,[6],0.252 µM
same,reduction in the infarct volume,focal ischemia,50%
same,TD50,in vivo [7],20.6 mg/kg
same,TD50 (motor impairment),motor performance; i.p.,19.9 mg/kg
same,TD50 (motor impairment),motor performance; oral,21.8 mg/kg
same,motor impairment,"motor performance; mice, 30 mg/kg p.o.",motor impairment
same,"analgesic activity, rat 52° C. hot plate test",thermal nociception [8],no significant analgesic activity
same,"Monoamine uptake binding assays: norepinephrine uptake binding assay, percent block",[9]; at 0.1 μM,5% at
same,"Monoamine uptake binding assays: norepinephrine uptake binding assay, percent block",[9]; at 10 μM,0.1^g58% at
same,cardiovascular activity,[10]; 0.3 mg/kg i.v. (60 sec bolus injection),no significant cardiovascular activity
same,cardiovascular activity,[10]; 1 mg/kg i.v. (60 sec bolus injection),no significant cardiovascular activity
same,heart rate,[10]; [25],transient increases in mean arterial pressure and heart rate
same,mean arterial pressure,[10]; [25],transient increases in mean arterial pressure and heart rate
same,heart rate,[10]; [26],larger magnitude and longer duration effects
same,mean arterial pressure,[10]; [26],larger magnitude and longer duration effects
same,ED50,sound-induced seizures; ip,2.1 mg/kg
same,ED50,sound-induced seizures; oral,9.7 mg/kg
same,LTP Assay (block of the induction of LTP),induction of LTP,block at 100
same,Central muscarinic cholinergic receptor: percent block of [3H]QNB binding,[11]; at 0.1 μM,8% at
same,Central muscarinic cholinergic receptor: percent block of [3H]QNB binding,[11]; at 10 μM,0.190% at
same,IC50,NMDA receptor [12],0.07 µM
same,TD50,[13],55.9 mg/kg
same,analgesic activity against acetic acid-induced abdominal writhing,[14],"significant analgesic activity, not blocked by naloxone"
same,no significant cardiovascular activity in anesthetized rats at doses up to,[15]; i.p.,≤ 10 mg/kg
same,"analgesic activity, rat 48° C. tail flick test",thermal nociception [16],no significant analgesic activity
same,no generalization to PCP at doses up to the behaviorally active dose of,[17],≤ 10 mg/kg
same,IC50,[18],1000 to 10000 nM
same,ED50,[19],20.1 mg/kg
same,no significant anticonvulsant activity against maximal electroshock-induced seizures at doses up to,[19]; oral (p.o.),up to 30 mg/kg
same,Suppression of NMDA Receptor-Mediated Synaptic Transmission (concentration which suppresses),NMDA receptor [20],30 to 300 µM
same,reduction in the infarct volume,permanent focal ischemia,24%
same,behavioral effects,behavior [21]; 2 mg/kg i.v.,no behavioral effects
same,behavioral effects,behavior [21]; 32 mg/kg i.v.,"Straub tail, convulsions, and death"
same,behavioral effects,behavior [21]; doses ranging from 4 to 16 mg/kg i.v.,"excitation, stereotypies, increased reactivity to touch, increased muscle tone, and tremor"
same,"Monoamine uptake binding assays: serotonin uptake binding assay, percent block",serotonin uptake site; at 0.1 μM,10^g28% at
same,"Monoamine uptake binding assays: serotonin uptake binding assay, percent block",serotonin uptake site; at 10 μM,0.1^h94% at
same,IC50,L-type calcium channel,2200 nM
NCCCNCCCCNCCC(=O)NCCCCCNC(=O)[C@H](CC(N)=O)NC(=O)Cc1ccc(O)cc1O [JSTX-3],IC50,GluR3,30 nM
same,IC50,GluR1 [22],40 nM
"COc1cccc(C(CCN)c2cccc(F)c2)c1 (stereo not shown) [Compound 25, 3-(3-fluorophenyl)-3-(3-methoxyphenyl)-1-propylamine]",ED50,"[5]; rats, oral",46.4 mg/kg
same,IC50,[6],0.871 µM
same,TD50,in vivo [7],32.2 mg/kg
same,IC50,NMDA receptor [12],0.279 µM
same,TD50,in vivo [23],163 to 326 mg/kg
same,ED50,[19],12.5 mg/kg
CCCC(=O)N[C@@H](Cc1ccc(O)cc1)C(=O)NCCCNCCCCNCCCN [PhTX-343],IC50,GluR1 [24],2800 nM
same,IC50,GluR1+GluR2,270000 nM
same,IC50,kainate receptors,120 nM
same,IC50,NMDA receptors,2500 nM
same,IC50,NMDAR1,2190 nM
"COc1ccccc1C(CCN)c1cccc(F)c1 (stereo not shown) [Compound 24, 3-(3-fluorophenyl)-3-(2-methoxyphenyl)-1-propylamine]",neuroprotectant activity in a rat model of focal ischemic stroke,focal ischemic stroke,no significant neuroprotectant activity
same,ED50,"[5]; rats, oral",46 mg/kg
same,IC50,[6],0.591 µM
same,TD50,in vivo [7]; Frings,16 mg/kg
same,ED50,sound-induced seizures; ip,5 mg/kg
same,IC50,NMDA receptor [12],0.206 µM
same,TD50,in vivo [23],51 mg/kg
same,no significant cardiovascular activity in anesthetized rats at doses up to,[15]; i.v.,up to 10 mg/kg
